Measured values as given in PubChem BioAssay AID1963833 (Molecular Pharmacology Branch, DTP, NCI, 2024).

Test system: 883617-216-R-J1-PDC complex spheroid viability
Assay: Anticancer human tumor 883617-216-R-J1-PDC patient-derived bladder carcinoma cell line growth inhibition [POLQ]
Details: for IC50: curve of first compound; for viability, T/C: stronger effect = lower value; active = viability on the fitted dose curve at most 10% of control; inactive = the rest
In short: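 Complex spheroid viability model combining PDC tumour cells with endothelial (HUVEC) and MSC stromal cells. Novobiocin, ART-558 or RP6685 were tested singly and in combination with standard and investigational anticancer drugs. Each was titrated in half-log steps from near clinical Cmax, or from 10 microM where Cmax was unknown.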

[1] = second compound 0.0316 µM, first compound 0.0316 µM
[2] = second compound 0.0316 µM, first compound 0.1 µM
[3] = second compound 0.0316 µM, first compound 0.316 µM
[4] = second compound 0.0316 µM, first compound 1 µM
[5] = second compound 0.0316 µM, first compound 3.16 µM
[6] = second compound 0.0316 µM, first compound 10 µM
[7] = second compound 0.1 µM, first compound 0.0316 µM
[8] = second compound 0.1 µM, first compound 0.1 µM
[9] = second compound 0.1 µM, first compound 0.316 µM
[10] = second compound 0.1 µM, first compound 1 µM
[11] = second compound 0.1 µM, first compound 3.16 µM
[12] = second compound 0.1 µM, first compound 10 µM
[13] = second compound 0.316 µM, first compound 0.0316 µM
[14] = second compound 0.316 µM, first compound 0.1 µM
[15] = second compound 0.316 µM, first compound 0.316 µM
[16] = second compound 0.316 µM, first compound 1 µM
[17] = second compound 0.316 µM, first compound 3.16 µM
[18] = second compound 0.316 µM, first compound 10 µM
[19] = second compound 1 µM, first compound 0.0316 µM
[20] = second compound 1 µM, first compound 0.1 µM
[21] = second compound 1 µM, first compound 0.316 µM
[22] = second compound 1 µM, first compound 1 µM
[23] = second compound 1 µM, first compound 3.16 µM
[24] = second compound 1 µM, first compound 10 µM
[25] = second compound 3.16 µM, first compound 0.0316 µM
[26] = second compound 3.16 µM, first compound 0.1 µM
[27] = second compound 3.16 µM, first compound 0.316 µM
[28] = second compound 3.16 µM, first compound 1 µM
[29] = second compound 3.16 µM, first compound 3.16 µM
[30] = second compound 3.16 µM, first compound 10 µM
[31] = second compound 10 µM, first compound 0.0316 µM
[32] = second compound 10 µM, first compound 0.1 µM
[33] = second compound 10 µM, first compound 0.316 µM
[34] = second compound 10 µM, first compound 1 µM
[35] = second compound 10 µM, first compound 3.16 µM
[36] = second compound 10 µM, first compound 10 µM
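Also: spheroids exposed to compounds for seven days before readout.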
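For viability, T/C in this document: 100% = DMSO vehicle control viability.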

CC1COCCN1c1cc(-c2ccnn2C)c2ccnc(-c3ccn[nH]3)c2n1 (centres undefined) + Cc1cccc(N(C)C(=O)C2C(O)CCN2c2nc(C)cc(C(F)(F)F)c2C#N)c1
257 nM: IC50 (second compound 1 µM)
334 nM: IC50 (second compound 10 µM)
291 nM: IC50 (second compound 0.1 µM)
205 nM: IC50 (second compound 0.0316 µM)
273 nM: IC50 (second compound 0.316 µM)
204 nM: IC50 (second compound 3.16 µM)
inactive: viability, T/C [1] 89.1% | viability, T/C [2] 61.4% | viability, T/C [3] 43.2% | viability, T/C [4] 34% | viability, T/C [5] 31.7% | viability, T/C [6] 29.4% | viability, T/C [7] 72.7% | viability, T/C [8] 59.1% | viability, T/C [9] 53.2% | viability, T/C [10] 35.7% | viability, T/C [11] 29.9% | viability, T/C [12] 34.7% | viability, T/C [13] 83.6% | viability, T/C [14] 63.1% | viability, T/C [15] 48% | viability, T/C [16] 39.3% | viability, T/C [17] 32.9% | viability, T/C [18] 30.9% | viability, T/C [19] 83.2% | viability, T/C [20] 66.1% | viability, T/C [21] 48.1% | viability, T/C [22] 32.1% | viability, T/C [23] 32.6% | viability, T/C [24] 30.3% | viability, T/C [25] 72% | viability, T/C [26] 60.6% | viability, T/C [27] 43.9% | viability, T/C [28] 32.9% | viability, T/C [29] 33% | viability, T/C [30] 30.7% | viability, T/C [31] 96.7% | viability, T/C [32] 60% | viability, T/C [33] 58.1% | viability, T/C [34] 37.9% | viability, T/C [35] 38.9% | viability, T/C [36] 28.2%

CCc1cc2c(N3CCc4c(cc(Cn5ccnc5)cc4-c4cn(C)nc4C(F)(F)F)C3=O)cc(C)nc2c(OC)n1 + Cc1cccc(N(C)C(=O)C2C(O)CCN2c2nc(C)cc(C(F)(F)F)c2C#N)c1
8300 nM: IC50 (second compound 0.1 µM)
7400 nM: IC50 (second compound 0.0316 µM)
7690 nM: IC50 (second compound 1 µM)
8250 nM: IC50 (second compound 10 µM)
> 10000 nM: IC50 (second compound 0.316 µM) | IC50 (second compound 3.16 µM)
inactive: viability, T/C [1] 87.4% | viability, T/C [2] 95.6% | viability, T/C [3] 91.7% | viability, T/C [4] 91.7% | viability, T/C [5] 72.8% | viability, T/C [6] 41.8% | viability, T/C [7] 86.1% | viability, T/C [8] 102% | viability, T/C [9] 94.5% | viability, T/C [10] 97.6% | viability, T/C [11] 72.8% | viability, T/C [12] 45.6% | viability, T/C [13] 81.3% | viability, T/C [14] 89.2% | viability, T/C [15] 98.8% | viability, T/C [16] 83.8% | viability, T/C [17] 69.9% | viability, T/C [18] 53% | viability, T/C [19] 89.1% | viability, T/C [20] 88.3% | viability, T/C [21] 106% | viability, T/C [22] 92.5% | viability, T/C [23] 71.1% | viability, T/C [24] 43.8% | viability, T/C [25] 99.8% | viability, T/C [26] 94.4% | viability, T/C [27] 102% | viability, T/C [28] 84.8% | viability, T/C [29] 74.6% | viability, T/C [30] 58.3% | viability, T/C [31] 107% | viability, T/C [32] 110% | viability, T/C [33] 93% | viability, T/C [34] 95.3% | viability, T/C [35] 69.9% | viability, T/C [36] 45.9%
